The test system of experiment [1] is HaCaT cells. Kind of experiment: Cell proliferation experiment (MTT), HaCaT. It is filed as cell-based, human. As to conditions: 24 hours. From the text:
(§1) Human keratinocytes (HaCaT) were purchased from the Kunming Cell Bank of the Type Culture Collection Committee of the Chinese Academy of Sciences, and mouse skin fibroblasts (NIH3T3) were purchased from the Shanghai Cell Bank of the Type Culture Collection Committee of the Chinese Academy of Sciences.
• a) Take cells in good condition in exponential growth phase, add 0.25% trypsin digestion solution, digest to make adherent cells fall off, count 1-4×10^5 cells/mL, and make cell suspension; • b) Appropriately dilute 2000 cells/well of the cell suspension and inoculate it on a 96-well plate at 200 μL/well, and culture it in a constant temperature CO2 incubator for 24 hours. • c) Change the medium, add the sample to be tested, 20 μL/well, and incubate for 24 hours; • d) Add the MTT reagent into the 96-well plate, 20 μL/well, and react in the incubator for 4 hours; • e) Aspirate the supernatant, add DMSO, 150 μL/well, and shake on a plate shaker for 5 minutes; • f) After 5 minutes, use a microplate reader to read the reference OD values at 490 nm and 630 nm wavelengths, and calculate the cell viability:
MTT method is a method to detect cell survival and growth. The measured OD value is directly proportional to cell activity. The larger the OD value, the higher the cell activity.

Experiment [2] deals with HaCaT cells. Kind of experiment: Scratch test (cell migration). It is filed as cell-based, human. As to conditions: 24 hours after scratch; peptides 100 ppm, EGF 50 U/mL; vs normal control group. As for the experimental part: Human keratinocytes (HaCaT) were purchased from the Kunming Cell Bank of the Type Culture Collection Committee of the Chinese Academy of Sciences.
The cryopreserved HaCaT cells were cultured, subcultured to about 5 passages according to the ratio of 1:2, and the cells with better growth were selected as the experimental objects. Cells were seeded in a 12-well plate at a density of 200,000 cells/well, with 2 mL of cell suspension in each well. After the cells adhered to the wall, the medium was replaced with 0.5% to 1% fetal bovine serum to maintain the cells for 24 hours to synchronize them. change. Scratch with a sterilized pipette tip, wash off the dropped cells with PBS, add the sample to be tested, continue to incubate in a 37° C., 5% CO2 incubator, and place it under an optical microscope after 24 hours to analyze the wound healing area.
The cell scratch migration test can reflect the proliferation and repair ability of the cells.

Experiment [3] deals with HaCaT cells. Kind of experiment: UVB light damage repair experiment (MTT), HaCaT. It is filed as cell-based, human. The note with it: UVB irradiated, 12.5-100 ppm, 24 hours. How it is done: as §1
Take cells in good exponential growth phase, add 0.25% trypsin digestion solution, digest to make adherent cells fall off, count 1×10^5-4×10^5 cells/mL, and make cell suspension.
Cells were seeded into 96-well plates at 10,000 cells/well, and the UVB photodamage model was established when the cells reached about 80% confluent. […]
After 24 hours, add 22 μL of 5 mg/mL MTT to each well, place in an incubator and incubate for 4 hours, discard the original solution, and add 150 μL/well of DMSO. After 5 minutes, use a microplate reader to read the reference OD values at 490 nm and 630 nm wavelengths.
By establishing a UVB light-damaged cell model, administering 24 hours after ultraviolet light irradiation, and using the MTT method to detect cell proliferation activity, the ability of the peptide of the present invention to repair light-damaged cells was evaluated.

A further experiment relates to TNF-α. Kind of experiment: Anti-inflammatory repair experiment, LPS-stimulated RAW264.7 cells, ELISA TNF-α. It is filed as cell-based, mouse. An excerpt:
(§2) Mouse mononuclear macrophages (RAW264.7 cells).
(§3) Peptide (2), tested at a concentration of 100 ppm.
(§4) • a) Take RAW264.7 cells in good exponential growth phase, add 0.25% trypsin digestion solution, digest to make adherent cells fall off, count 1-4×10^6 cells/mL, and make cell suspension; • b) Appropriately dilute 100,000 cells/well of cell suspension and inoculate it on a 6-well plate, and establish an LPS-stimulated inflammation model when the cells reached about 80% confluent. Set blank control group (control), LPS group, dexamethasone group (DXM), polypeptide group. Add 1000 μL culture medium to the blank control group; add 200 ng/mL LPS to the LPS group, add culture medium to 1000 μL; add 200 ng/mL LPS and 50 ng/mL dexamethasone to the dexamethasone group, add culture medium to 1000 μL; add 200 ng/mL LPS and peptide (2) to the polypeptide group, add culture medium to 1000 μL (final test concentration of peptide is 100 ppm). […] The OD value of each well was sequentially measured at 450 nm with a microplate reader within 15 min after the reaction was terminated. […]

The test system of a further experiment is IL-8. Kind of experiment: Anti-inflammatory repair experiment, LPS-stimulated RAW264.7 cells, ELISA IL-8. It is filed as cell-based, mouse. The note with it: 100 ppm, 200 ng/mL LPS, 48 h, vs LPS group.
Excerpt: as §2, §3, §4
On the technique in general: An ELISA detects its analyte on a solid surface through an enzyme-linked reagent.

With “H-Ala-Pro-Phe-Arg-Met-Gly-Ile-Met-Thr-Thr-Asn-OH (H-APFRMGIMTTN-OH) [Peptide (2)]”, the “impact on the activity of HaCaT cells compared among peptides (1)-(5)” value in the experiment with HaCaT cells [1] (12.5-100 ppm) is on record as “greater impact on the activity of HaCaT cells”. In addition, in the experiment with HaCaT cells [1] (12.5 ppm-100 ppm, vs PBS blank control), the “effect on the activity of HaCaT cells (MTT)” value is “could both improve the activity of HaCaT cells, promote their proliferation”. In the experiment on HaCaT cells [2], the “scratch spacing (proliferation and migration)” value is “shorter than that of the normal control group”. Moreover, the “effect on improving activity of photodamaged HaCaT cells compared among peptides (1)-(5)” value with HaCaT cells [3] is given as “better effect on improving cell activity”. Also, the “anti-inflammatory effect compared with dexamethasone” value with TNF-α (100 ppm vs 50 ng/mL dexamethasone, TNF-α, IL-6 and IL-8) is reported as “equivalent to the positive drug dexamethasone”. The “expression of TNF-α” value in the experiment on TNF-α (100 ppm, 200 ng/mL LPS, 48 h, vs LPS group) is “significantly down-regulated”. Moreover, the “expression of IL-8” value in the experiment with IL-8 is recorded as “significantly down-regulated”.

For the origin of these results see patent publication US20240352069A1, “SYNTHETIC PEPTIDE, AND COSMETIC COMPOSITION OR PHARMACEUTICAL COMPOSITION AND APPLICATION THEREOF” (SHENZHEN WINKEY TECHNOLOGY CO., LTD., priority 2021, published 2024).
